Reference: article PMC9683047, “Design, synthesis and biological evaluation of 4-aminoquinoline derivatives as receptor-interacting protein kinase 2 (RIPK2) inhibitors” (Journal of Enzyme Inhibition and Medicinal Chemistry, 2022)

How the values were obtained:
Type in all cases: biochemical
RIPK2 = target: T1, RIPK2 (Homo sapiens, UniProt O43353); test: RIPK2 kinase inhibition assay (ADP-Glo); conditions: mean ± SD from two separate experiments
T1 construct: purchased Promega
Experimental: RIPK2 kinase activity was analysed using the ADP-Glo™ Assay Kit (RIPK2 Kinase Enzyme System, Promega, USA). Reactions were performed according to the instructions. Specific signal was calculated by subtracting values in the wells without protein and inhibitor from the values in the test wells.

RIPK1 = target: T2, RIPK1 (Homo sapiens, UniProt Q13546); test: RIPK1 inhibition rate at 1 µM
T2 sequence (Q13546 1-671): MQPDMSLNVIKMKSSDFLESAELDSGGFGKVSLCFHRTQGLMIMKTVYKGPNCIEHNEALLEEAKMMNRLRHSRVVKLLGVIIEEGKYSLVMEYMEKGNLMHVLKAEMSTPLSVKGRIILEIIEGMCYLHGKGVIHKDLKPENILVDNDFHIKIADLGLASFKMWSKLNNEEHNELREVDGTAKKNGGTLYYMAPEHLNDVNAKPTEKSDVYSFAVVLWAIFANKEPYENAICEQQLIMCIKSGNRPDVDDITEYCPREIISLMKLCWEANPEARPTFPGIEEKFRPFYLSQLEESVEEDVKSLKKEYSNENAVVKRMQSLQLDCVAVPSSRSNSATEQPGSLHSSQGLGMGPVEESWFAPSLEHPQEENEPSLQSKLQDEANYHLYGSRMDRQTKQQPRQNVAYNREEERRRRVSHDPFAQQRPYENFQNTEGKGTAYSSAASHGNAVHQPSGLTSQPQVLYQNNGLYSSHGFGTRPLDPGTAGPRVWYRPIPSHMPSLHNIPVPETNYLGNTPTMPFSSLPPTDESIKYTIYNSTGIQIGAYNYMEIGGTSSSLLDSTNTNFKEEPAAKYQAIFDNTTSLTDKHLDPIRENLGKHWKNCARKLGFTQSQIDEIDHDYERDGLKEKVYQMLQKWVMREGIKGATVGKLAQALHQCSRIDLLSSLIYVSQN
Experimental: Table 4. Selectivity, ClogP and LipE of compound 14, 15, 21, 32, 36. | column: RIPK1 IR@1µM (%)

BTK(h) = target: T3, BTK(h) (Homo sapiens, UniProt Q06187); test: Kinase selectivity panel: BTK
T3 construct: purchased Eurofins (Millipore) KinaseProfiler Diversity Panel
T3 sequence (Q06187 whole entry): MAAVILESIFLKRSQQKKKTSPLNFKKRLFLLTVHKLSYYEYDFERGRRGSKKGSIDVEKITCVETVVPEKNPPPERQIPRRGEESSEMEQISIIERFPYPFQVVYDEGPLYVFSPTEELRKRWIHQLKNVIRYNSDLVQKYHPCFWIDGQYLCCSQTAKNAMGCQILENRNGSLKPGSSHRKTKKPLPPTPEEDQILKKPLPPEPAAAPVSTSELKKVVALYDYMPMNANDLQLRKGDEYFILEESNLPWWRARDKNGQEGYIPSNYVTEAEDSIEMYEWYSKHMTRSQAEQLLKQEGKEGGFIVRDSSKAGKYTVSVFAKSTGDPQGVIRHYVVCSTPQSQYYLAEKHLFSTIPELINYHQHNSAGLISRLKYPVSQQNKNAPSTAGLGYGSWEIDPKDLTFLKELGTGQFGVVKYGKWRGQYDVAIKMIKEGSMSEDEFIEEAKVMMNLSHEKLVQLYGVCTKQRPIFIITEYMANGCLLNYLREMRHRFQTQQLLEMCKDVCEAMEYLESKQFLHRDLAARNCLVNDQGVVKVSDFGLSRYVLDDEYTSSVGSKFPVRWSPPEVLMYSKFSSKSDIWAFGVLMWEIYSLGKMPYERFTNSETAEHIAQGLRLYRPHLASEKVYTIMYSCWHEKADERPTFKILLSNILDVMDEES
Experimental: (§1) To confirm the anti-inflammatory effect was caused by RIPK2 inhibition, compound 14 was subjected to kinase selectivity evaluation (Figure 4). Kinase selectivity profile of compound 14 as shown by the diversity kinase Panel screen against 70 kinases assayed at 1 µM. Among all tested 70 kinases, only five were inhibited over 90% at 1 µM including Fyn, Lyn, BTK, Abl and RIPK2. Three kinases including KDR, CDK9 and LOK were inhibited 50–90% at 1 µM.

DRAK1(h) = target: T4, DRAK1(h) (Homo sapiens, UniProt Q9UEE5); test: Kinase selectivity panel: DRAK1; conditions: 1 µM
T4 construct: purchased Eurofins (Millipore) KinaseProfiler Diversity Panel
T4 sequence (Q9UEE5 whole entry): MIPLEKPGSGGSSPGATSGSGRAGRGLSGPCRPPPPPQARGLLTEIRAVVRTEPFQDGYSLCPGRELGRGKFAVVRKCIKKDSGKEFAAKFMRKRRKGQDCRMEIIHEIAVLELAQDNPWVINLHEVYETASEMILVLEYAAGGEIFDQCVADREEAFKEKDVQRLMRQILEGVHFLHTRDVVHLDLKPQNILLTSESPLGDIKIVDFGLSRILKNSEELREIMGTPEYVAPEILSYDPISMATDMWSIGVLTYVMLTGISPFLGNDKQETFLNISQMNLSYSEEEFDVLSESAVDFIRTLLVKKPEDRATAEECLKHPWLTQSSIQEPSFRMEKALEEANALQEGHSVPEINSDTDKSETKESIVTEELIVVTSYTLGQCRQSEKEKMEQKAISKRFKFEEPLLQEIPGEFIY
Experimental: as §1

Lyn(h) = target: T5, Lyn(h) (Homo sapiens, UniProt P07948); test: Kinase selectivity panel: Lyn
T5 construct: purchased Eurofins (Millipore) KinaseProfiler Diversity Panel
T5 sequence (P07948 whole entry): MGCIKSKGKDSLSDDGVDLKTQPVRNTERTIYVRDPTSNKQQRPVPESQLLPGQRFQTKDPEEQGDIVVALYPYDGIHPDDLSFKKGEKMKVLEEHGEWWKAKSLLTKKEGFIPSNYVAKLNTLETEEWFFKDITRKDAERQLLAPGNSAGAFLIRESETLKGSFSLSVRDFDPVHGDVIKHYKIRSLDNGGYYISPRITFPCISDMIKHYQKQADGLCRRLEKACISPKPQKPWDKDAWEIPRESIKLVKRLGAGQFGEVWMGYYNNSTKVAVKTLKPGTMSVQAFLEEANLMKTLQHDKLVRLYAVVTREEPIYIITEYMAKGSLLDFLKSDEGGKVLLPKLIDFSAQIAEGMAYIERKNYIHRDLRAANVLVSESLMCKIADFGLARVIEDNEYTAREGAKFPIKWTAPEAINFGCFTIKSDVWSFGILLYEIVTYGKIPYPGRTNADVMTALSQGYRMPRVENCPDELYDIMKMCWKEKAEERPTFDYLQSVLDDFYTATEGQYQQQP
Experimental: as §1

PRAK(h) = target: T6, PRAK(h) (Homo sapiens, UniProt Q8IW41); test: Kinase selectivity panel: PRAK; conditions: 1 µM
T6 construct: purchased Eurofins (Millipore) KinaseProfiler Diversity Panel
T6 sequence (Q8IW41 whole entry): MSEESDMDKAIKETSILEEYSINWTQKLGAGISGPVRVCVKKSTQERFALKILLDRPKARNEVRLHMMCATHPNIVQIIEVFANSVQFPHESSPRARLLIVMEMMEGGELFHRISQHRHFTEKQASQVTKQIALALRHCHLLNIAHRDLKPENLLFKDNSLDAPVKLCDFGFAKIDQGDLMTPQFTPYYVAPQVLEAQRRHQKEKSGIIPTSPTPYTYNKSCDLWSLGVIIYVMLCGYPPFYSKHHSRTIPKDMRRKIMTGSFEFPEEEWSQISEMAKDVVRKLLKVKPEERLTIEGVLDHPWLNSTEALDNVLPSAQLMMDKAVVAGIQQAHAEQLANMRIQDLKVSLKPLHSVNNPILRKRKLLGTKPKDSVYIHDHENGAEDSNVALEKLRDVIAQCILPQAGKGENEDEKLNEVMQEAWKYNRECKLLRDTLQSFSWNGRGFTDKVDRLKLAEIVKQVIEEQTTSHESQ
Experimental: as §1

T1 sequence (O43353 whole entry): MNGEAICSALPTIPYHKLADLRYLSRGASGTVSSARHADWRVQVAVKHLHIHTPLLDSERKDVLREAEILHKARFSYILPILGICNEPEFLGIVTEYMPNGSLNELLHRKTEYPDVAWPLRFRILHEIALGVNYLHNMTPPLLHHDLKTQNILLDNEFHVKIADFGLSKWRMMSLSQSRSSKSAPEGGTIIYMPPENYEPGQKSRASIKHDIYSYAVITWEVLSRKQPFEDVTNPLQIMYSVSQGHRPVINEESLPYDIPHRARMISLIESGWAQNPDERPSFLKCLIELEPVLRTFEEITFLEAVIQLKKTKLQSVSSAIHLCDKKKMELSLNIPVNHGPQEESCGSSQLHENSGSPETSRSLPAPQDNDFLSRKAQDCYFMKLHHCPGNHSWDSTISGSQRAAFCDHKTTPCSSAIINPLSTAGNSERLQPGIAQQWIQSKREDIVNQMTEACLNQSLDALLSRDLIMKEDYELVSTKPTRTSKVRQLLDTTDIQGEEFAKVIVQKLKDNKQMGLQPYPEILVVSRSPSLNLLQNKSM

c1cc(-c2ccc3nccc(Nc4ccc5scnc5c4)c3c2)ccn1 [Compound 14, N-(6-(pyridin-4-yl)quinolin-4-yl)benzo[d]thiazol-5-amine]
IC50 (RIPK2): 5.1 ± 1.6 nM
RIPK1 IR@1µM (%) (RIPK1): <1%
remaining BTK activity (% of control) (BTK(h); 1 µM): 4
inhibition at 1 µM (BTK(h); at 1 µM): > 90%
Remaining DRAK1 activity (% of control) (DRAK1(h)): 110
Remaining Lyn kinase activity (% of control) (Lyn(h); 1 µM): 3
inhibition at 1 µM (Lyn(h); at 1 µM): > 90%
remaining kinase activity (%) (PRAK(h)): 123
